Assay results taken from ChEMBL document CHEMBL5370592, “Synthesis and Structure-Activity Relationships of a New Class of Oxadiazoles Targeting DprE1 as Antitubercular Agents” (ACS Med Chem Lett, 2023).
Values after ≈ are worked out from the molar mass of the structure shown.

Experiments:
Type in all cases: functional
[1] = tested on: Mycobacterium tuberculosis; assay: Antitubercular activity against ethambutol/D-cycloserine-resistant Mycobacterium tuberculosis NIH_G11R assessed as inhibition of bacterial growth incubated for 2 weeks; conditions: 336 h
[2] = tested on: Mycobacterium tuberculosis; assay: Antitubercular activity against ethionamide-resistant Mycobacterium tuberculosis NIH_G145 assessed as inhibition of bacterial growth incubated for 2 weeks; conditions: NIH_G145, 336 h
[3] = tested on: Mycobacterium tuberculosis; assay: Antitubercular activity against streptomycin/D-cycloserine-resistant Mycobacterium tuberculosis NIH_G169 assessed as inhibition of bacterial growth incubated for 2 weeks; conditions: NIH_G169, 336 h
[4] = tested on: Mycobacterium tuberculosis; assay: Antitubercular activity against isoniazid/ethionamide/D-cycloserine-resistant Mycobacterium tuberculosis NIH_G17R assessed as inhibition of bacterial growth incubated for 2 weeks; conditions: 336 h
[5] = tested on: Mycobacterium tuberculosis; assay: Antitubercular activity against isoniazid/ofloxacin/prothionamide-resistant Mycobacterium tuberculosis NIH1B127 assessed as inhibition of bacterial growth incubated for 2 weeks; conditions: NIH1B127, 336 h
[6] = tested on: Mycobacterium tuberculosis; assay: Antitubercular activity against isoniazid/rifampicin/streptomycin-resistant Mycobacterium tuberculosis clinical strain 01291696 assessed as inhibition of bacterial growth incubated for 2 weeks; conditions: Mycobacterium tuberculosis, 01291696, 336 h
[7] = tested on: Mycobacterium tuberculosis; assay: Antitubercular activity against isoniazid/rifampicin/ethambutol/rifabutin-resistant Mycobacterium tuberculosis K18b01MR assessed as inhibition of bacterial growth incubated for 2 weeks; conditions: 336 h
[8] = tested on: Mycobacterium tuberculosis; assay: Antitubercular activity against isoniazid/rifampicin/ethambutol/streptomycin-resistant Mycobacterium tuberculosis K21b00MR assessed as inhibition of bacterial growth incubated for 2 weeks; conditions: 336 h
[9] = tested on: Mycobacterium tuberculosis; assay: Antitubercular activity against isoniazid/rifampicin/ethambutol/rifabutin-resistant Mycobacterium tuberculosis K22b00MR assessed as inhibition of bacterial growth incubated for 2 weeks; conditions: 336 h
[10] = tested on: Mycobacterium tuberculosis; assay: Antitubercular activity against isoniazid/rifampicin/ethambutol/pyrazinamid/rifabutin/prothionamide-resistant Mycobacterium tuberculosis K25b00MR assessed as inhibition of bacterial growth incubated for 2 weeks; conditions: 336 h
[11] = tested on: Mycobacterium tuberculosis; assay: Antitubercular activity against isoniazid/rifampicin/ethambutol/pyrazinamid/rifabutin-resistant Mycobacterium tuberculosis K26b00MR assessed as inhibition of bacterial growth incubated for 2 weeks; conditions: 336 h
[12] = tested on: Mycobacterium tuberculosis; assay: Antitubercular activity against isoniazid/rifampicin/streptomycin/para-aminosalicylic acid/ofloxacin-resistant Mycobacterium tuberculosis K29b00MR assessed as inhibition of bacterial growth incubated for 2 weeks; conditions: 336 h
[13] = tested on: Mycobacterium tuberculosis; assay: Antitubercular activity against isoniazid/rifampicin/ethambutol/rifabutin-resistant Mycobacterium tuberculosis NIH_G10R assessed as inhibition of bacterial growth incubated for 2 weeks; conditions: 336 h
[14] = tested on: Mycobacterium tuberculosis; assay: Antitubercular activity against isoniazid/rifampicin/ethambutol/streptomycin/D-cycloserine/rifabutin-resistant Mycobacterium tuberculosis NIH_G19R assessed as inhibition of bacterial growth incubated for 2 weeks; conditions: 336 h
[15] = tested on: Mycobacterium tuberculosis; assay: Antitubercular activity against isoniazid/rifampicin/ethambutol/pyrazinamide/streptomycin/kanamycin-resistant Mycobacterium tuberculosis K20b00MR assessed as inhibition of bacterial growth incubated for 2 weeks; conditions: 336 h
[16] = tested on: Mycobacterium tuberculosis; assay: Antitubercular activity against isoniazid/rifampicin/kanamycin/pyrazinamide/capreomycin/amikacin/prothionamide/D-cycloserine-resistant Mycobacterium tuberculosis K32b00MR assessed as inhibition of bacterial growth incubated for 2 weeks; conditions: 336 h
[17] = tested on: Mycobacterium tuberculosis; assay: Antitubercular activity against isoniazid/rifampicin/ethambutol/pyrazinamide/streptomycin/kanamycin/para-aminosalicylic acid/prothionamide-resistant Mycobacterium tuberculosis K33b00MR assessed as inhibition of bacterial growth incubated for 2 weeks; conditions: 336 h
[18] = tested on: Mycobacterium tuberculosis; assay: Antitubercular activity against isoniazid/rifampicin/ethambutol/para-aminosalicylic acid/kanamycin/ofloxacin/prothionamide-resistant Mycobacterium tuberculosis Kb019 assessed as inhibition of bacterial growth incubated for 2 weeks; conditions: Kb019, 336 h
[19] = tested on: Mycobacterium tuberculosis; assay: Antitubercular activity against extensively drug-resistant Mycobacterium tuberculosis 026K111 assessed as inhibition of bacterial growth incubated for 2 weeks; conditions: 026K111, 336 h
[20] = tested on: Mycobacterium tuberculosis; assay: Antitubercular activity against extensively drug-resistant Mycobacterium tuberculosis 028K111 assessed as inhibition of bacterial growth incubated for 2 weeks; conditions: 028K111, 336 h
[21] = tested on: Mycobacterium tuberculosis; assay: Antitubercular activity against extensively drug-resistant Mycobacterium tuberculosis clinical strain 00202293 assessed as inhibition of bacterial growth incubated for 2 weeks; conditions: Mycobacterium tuberculosis, 00202293, 336 h
[22] = tested on: Mycobacterium tuberculosis; assay: Antitubercular activity against extensively drug-resistant Mycobacterium tuberculosis clinical strain X37b00XR assessed as inhibition of bacterial growth incubated for 2 weeks; conditions: 336 h
[23] = tested on: Mycobacterium tuberculosis; assay: Antitubercular activity against isoniazid/ethionamide-resistant Mycobacterium tuberculosis NIH1B21 assessed as inhibition of bacterial growth incubated for 2 weeks; conditions: NIH1B21, 336 h
[24] = tested on: Mycobacterium tuberculosis; assay: Antitubercular activity against isoniazid/ethambutol/prothionamide/D-cycloserine/ofloxacin/levofloxacin/pyrazinamide-resistant Mycobacterium tuberculosis NIH1B314 assessed as inhibition of bacterial growth incubated for 2 weeks; conditions: NIH1B314, 336 h
[25] = tested on: Mycobacterium tuberculosis; assay: Antitubercular activity against isoniazid/prothionamide-resistant Mycobacterium tuberculosis NIHA38 assessed as inhibition of bacterial growth incubated for 2 weeks; conditions: NIHA38, 336 h
[26] = tested on: Mycobacterium tuberculosis; assay: Antitubercular activity against isoniazid/prothionamide-resistant Mycobacterium tuberculosis NIHB140 assessed as inhibition of bacterial growth incubated for 2 weeks; conditions: NIHB140, 336 h
[27] = tested on: Mycobacterium tuberculosis; assay: Antitubercular activity against rifampicin/isoniazid/streptomycin/prothionamide-resistant Mycobacterium tuberculosis NIHB43 assessed as inhibition of bacterial growth incubated for 2 weeks; conditions: NIHB43, 336 h
[28] = tested on: Mycobacterium tuberculosis; assay: Antitubercular activity against isonizaid/rifampicin/ethambutol/rifabutin/D-cycloserine-resistant Mycobacterium tuberculosis NIH_G21R assessed as inhibition of bacterial growth incubated for 2 weeks; conditions: 336 h
[29] = tested on: Mycobacterium tuberculosis; assay: Antitubercular activity against isonizaid/rifampicin/ethambutol/rifabutin-resistant Mycobacterium tuberculosis NIH_G22R assessed as inhibition of bacterial growth incubated for 2 weeks; conditions: 336 h
[30] = tested on: Mycobacterium tuberculosis; assay: Antitubercular activity against isonizaid/rifampicin/ethambutol/rifabutin-resistant Mycobacterium tuberculosis NIH_G269DR assessed as inhibition of bacterial growth incubated for 2 weeks; conditions: 336 h
[31] = tested on: Mycobacterium tuberculosis; assay: Antitubercular activity against isonizaid/rifampicin/streptomycin/ethionamide-resistant Mycobacterium tuberculosis NIH_G79 assessed as inhibition of bacterial growth incubated for 2 weeks; conditions: NIH_G79, 336 h
[32] = tested on: Mycobacterium tuberculosis; assay: Antitubercular activity against isonizaid/rifampicin/rifabutin-resistant Mycobacterium tuberculosis NIHA37 assessed as inhibition of bacterial growth incubated for 2 weeks; conditions: NIHA37, 336 h
[33] = tested on: Mycobacterium tuberculosis; assay: Antitubercular activity against isonizaid/rifampicin/ethionamide/prothionamide-resistant Mycobacterium tuberculosis NIHA48 assessed as inhibition of bacterial growth incubated for 2 weeks; conditions: NIHA48, 336 h
[34] = tested on: Mycobacterium tuberculosis; assay: Antitubercular activity against isoniazid/rifampicin/ethambutol/pyrazinamide/rifabutin/prothionamide-resistant Mycobacterium tuberculosis NIHB302 assessed as inhibition of bacterial growth incubated for 2 weeks; conditions: NIHB302, 336 h
[35] = tested on: Mycobacterium tuberculosis; assay: Antitubercular activity against isoniazid/rifampicin/para-aminosalicylic acid/ofloxacin/prothionamide-resistant Mycobacterium tuberculosis NIHB67 assessed as inhibition of bacterial growth incubated for 2 weeks; conditions: NIHB67, 336 h
[36] = tested on: Mycobacterium tuberculosis; assay: Antitubercular activity against isoniazid/rifampicin/para-aminosalicylic acid/pyrazinamide/prothionamide/rifabutin-resistant Mycobacterium tuberculosis NIHB68 assessed as inhibition of bacterial growth incubated for 2 weeks; conditions: NIHB68, 336 h
[37] = tested on: Mycobacterium tuberculosis; assay: Antitubercular activity against isoniazid/rifampicin/moxifloxacin-resistant Mycobacterium tuberculosis NIH_G367DR assessed as inhibition of bacterial growth incubated for 2 weeks; conditions: 336 h
[38] = tested on: Mycobacterium tuberculosis; assay: Antitubercular activity against isoniazid/rifampicin/moxifloxacin-resistant Mycobacterium tuberculosis NIH_G76MR assessed as inhibition of bacterial growth incubated for 2 weeks; conditions: 336 h
[39] = tested on: Mycobacterium tuberculosis; assay: Antitubercular activity against isoniazid/rifampicin/pyrazinamide/prothionamide/rifabutin/ofloxacin/moxifloxacin/levofloxacin-resistant Mycobacterium tuberculosis NIHB188 assessed as inhibition of bacterial growth incubated for 2 weeks; conditions: NIHB188, 336 h
[40] = tested on: Mycobacterium tuberculosis; assay: Antitubercular activity against isoniazid/rifampicin/ethambutol/pyrazinamide/prothionamide/ofloxacin/levofloxacin/rifabutin-resistant Mycobacterium tuberculosis NIHB270 assessed as inhibition of bacterial growth incubated for 2 weeks; conditions: NIHB270, 336 h
[41] = tested on: Mycobacterium tuberculosis; assay: Antitubercular activity against extensively drug-resistant Mycobacterium tuberculosis NIH1B178 assessed as inhibition of bacterial growth incubated for 2 weeks; conditions: NIH1B178, 336 h
[42] = tested on: Mycobacterium tuberculosis; assay: Antitubercular activity against extensively drug-resistant Mycobacterium tuberculosis NIH1B250 assessed as inhibition of bacterial growth incubated for 2 weeks; conditions: NIH1B250, 336 h
[43] = tested on: Mycobacterium tuberculosis; assay: Antitubercular activity against extensively drug-resistant Mycobacterium tuberculosis NIHB13 assessed as inhibition of bacterial growth incubated for 2 weeks; conditions: NIHB13, 336 h

O=C(C1CCN(c2nnc(-c3ccccc3)o2)CC1)N1CCC(Cc2ccccc2)CC1
MIC [1]: 0.6 µM (≈ 0.258 µg/mL)
MIC [2]: 1.2 µM (≈ 0.517 µg/mL)
MIC [3]: 0.39 µM (≈ 0.168 µg/mL)
MIC [4]: 0.6 µM (≈ 0.258 µg/mL)
MIC [5]: 0.39 µM (≈ 0.168 µg/mL)
MIC [6]: 0.78 µM (≈ 0.336 µg/mL)
MIC [7]: 1.56 µM (≈ 0.672 µg/mL)
MIC [8]: 1.2 µM (≈ 0.517 µg/mL)
MIC [9]: 1.56 µM (≈ 0.672 µg/mL)
MIC [10]: 1.2 µM (≈ 0.517 µg/mL)
MIC [11]: 1.2 µM (≈ 0.517 µg/mL)
MIC [12]: 1.2 µM (≈ 0.517 µg/mL)
MIC [13]: 0.6 µM (≈ 0.258 µg/mL)
MIC [14]: 1.56 µM (≈ 0.672 µg/mL)
MIC [15]: 4.7 µM (≈ 2.02 µg/mL)
MIC [16]: 1.56 µM (≈ 0.672 µg/mL)
MIC [17]: 2.3 µM (≈ 0.99 µg/mL)
MIC [18]: 4.7 µM (≈ 2.02 µg/mL)
MIC [19]: 1.56 µM (≈ 0.672 µg/mL)
MIC [20]: 1.56 µM (≈ 0.672 µg/mL)
MIC [21]: 1.56 µM (≈ 0.672 µg/mL)
MIC [22]: 3.13 µM (≈ 1.35 µg/mL)
MIC [23]: 1.56 µM (≈ 0.672 µg/mL)
MIC [24]: 3.13 µM (≈ 1.35 µg/mL)
MIC [25]: 0.39 µM (≈ 0.168 µg/mL)
MIC [26]: 0.6 µM (≈ 0.258 µg/mL)
MIC [27]: 0.78 µM (≈ 0.336 µg/mL)
MIC [28]: 2.3 µM (≈ 0.99 µg/mL)
MIC [29]: 1.2 µM (≈ 0.517 µg/mL)
MIC [30]: 1.2 µM (≈ 0.517 µg/mL)
MIC [31]: 1.56 µM (≈ 0.672 µg/mL)
MIC [32]: 0.39 µM (≈ 0.168 µg/mL)
MIC [33]: 1.56 µM (≈ 0.672 µg/mL)
MIC [34]: 0.78 µM (≈ 0.336 µg/mL)
MIC [35]: 0.78 µM (≈ 0.336 µg/mL)
MIC [36]: 0.39 µM (≈ 0.168 µg/mL)
MIC [37]: 3.13 µM (≈ 1.35 µg/mL)
MIC [38]: 1.2 µM (≈ 0.517 µg/mL)
MIC [39]: 0.6 µM (≈ 0.258 µg/mL)
MIC [40]: 1.56 µM (≈ 0.672 µg/mL)
MIC [41]: 0.78 µM (≈ 0.336 µg/mL)
MIC [42]: 2.3 µM (≈ 0.99 µg/mL)
MIC [43]: 0.78 µM (≈ 0.336 µg/mL)
